# In US20110044938A1 (NYCOMED GMBH, priority 2006, published 2011):
# Columns and labels:
# [1] = system: RKO (RKOp27) human colon adenocarcinoma cells; assay: Alamar Blue cell viability assay, anti-proliferative/cytotoxic activity on proliferating RKO subclones; format: cell-based; conditions: RKOp27, 72 h, RKO p27 uninduced (proliferating) cells, value = class bound given in Table A, read-out: −logIC50 RKO p27 uninduced (proliferating) (converted)
# Outline: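 RKOp27 subclones (5000 cells/well) were exposed 24 h after seeding to semi-log compound dilutions in DMEM with 10% FCS, in quadruplicate, for 72 h at 37 °C. Viability was read by Alamar Blue fluorescence (544/590 nm) relative to untreated cells (1% DMSO medium). IC50 came from concentration-effect curves and is reported as −log IC50 [mol/l].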
# [2] = system: subclones of RKO colon adenocarcinoma cells (RKOp27 or RKOp21) arrested by Ponasterone A; assay: Alamar Blue cell viability assay, cell cycle specific mode of action: cells arrested by ectopic p27Kip1 induced by Ponasterone A versus proliferating cells; format: cell-based; conditions: Homo sapiens, RKO p27 induced (arrested) cells, 10 μM Ponasterone A, 72 hours, value = class bound given in Table A, read-out: −logIC50 RKO p27 induced (arrested) (converted)
# Outline: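 RKOp27 or RKOp21 cells, 15000/well in DMEM/10% FCS, either arrested by p27Kip1 induced with 10 μM Ponasterone A or proliferating without inducer; compound added after 24 h, 72 h at 37° C. Alamar Blue fluorescence (544/590 nm), viability as % of untreated cells; −log IC50 reported.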
IC50 [2] [nM],SMILES,IC50 [1] [nM]
≥ 100000,"Cc1cc(CNC(=O)OC2CCc3c(sc(NC(=O)/C=C/c4cccnc4)c3C#N)C2)on1 (stereo not shown) [Example 94, (3-Methyl-isoxazol-5-ylmethyl)-carbamic acid 3-cyano-2-((E)-3-pyridin-3-yl-allanoylamino)-4,5,6,7-tetrahydro-benzo[b]thiophen-6-yl ester]",≤ 501
≥ 100000,"Cc1cc(CNC(=O)OC2CCc3c(sc(NC(=O)/C=C/c4cccnc4)c3C#N)C2)n(C)n1 (stereo not shown) [Example 95, (2,5-Dimethyl-2H-pyrazol-3-ylmethyl)-carbamic acid 3-cyano-2-((E)-3-pyridin-3-yl-allanoylamino)-4,5,6,7-tetrahydro-benzo[b]thiophen-6-yl ester]",≤ 501
≥ 100000,"N#Cc1c(NC(=O)/C=C/c2cccnc2)sc2c1CCC(OC(=O)N1CCC(O)CC1)C2 (stereo not shown) [Example 96, 4-Hydroxy-piperidine-1-carboxylic acid 3-cyano-2-((E)-3-pyridin-3-yl-allanoylamino)-4,5,6,7-tetrahydro-benzo[b]thiophen-6-yl ester]",≤ 501
≥ 100000,"CC(C)N(C)C(=O)OCC1CCc2c(sc(NC(=O)/C=C/c3cccnc3)c2C#N)C1 (stereo not shown) [Example 97, Isopropyl-methyl-carbamic acid 3-cyano-2-((E)-3-pyridin-3-yl-allanoylamino)-4,5,6,7-tetrahydro-benzo[b]thiophen-6-ylmethyl ester]",≤ 501
≥ 100000,"N#Cc1c(NC(=O)/C=C/c2cccnc2)sc2c1CCC(COC(=O)NC1CCC1)C2 (stereo not shown) [Example 98, Cyclobutyl-carbamic acid 3-cyano-2-((E)-3-pyridin-3-yl-allanoylamino)-4,5,6,7-tetrahydro-benzo[b]thiophen-6-ylmethyl ester]",≤ 501
≥ 100000,"N#Cc1c(NC(=O)/C=C/c2cccnc2)sc2c1CCC(COC(=O)NC1CC1)C2 (stereo not shown) [Example 99, Cyclopropyl-carbamic acid 3-cyano-2-((E)-3-pyridin-3-yl-allanoylamino)-4,5,6,7-tetrahydro-benzo[b]thiophen-6-ylmethyl ester]",≤ 501
≥ 100000,"N#Cc1c(NC(=O)/C=C/c2cccnc2)sc2c1CCC(COC(=O)N[C@H]1CC[C@H](O)CC1)C2 (stereo partly drawn) [Example 100, trans-4-Hydroxycyclohexyl-carbamic acid 3-cyano-2-((E)-3-pyridin-3-yl-allanoylamino)-4,5,6,7-tetrahydro-benzo[b]thiophen-6-ylmethyl ester]",501 to 2000
≥ 100000,"CC(C)NC(=O)OCC1CCc2c(sc(NC(=O)/C=C/c3cccnc3)c2C#N)C1 (stereo not shown) [Example 101, Isopropyl-carbamic acid 3-cyano-2-((E)-3-pyridin-3-yl-allanoylamino)-4,5,6,7-tetrahydro-benzo[b]thiophen-6-ylmethyl ester]",≤ 501
≥ 100000,"CC(CO)NC(=O)OCC1CCc2c(sc(NC(=O)/C=C/c3cccnc3)c2C#N)C1 (stereo not shown) [Example 102, (2-Hydroxy-1-methyl-ethyl)-carbamic acid 3-cyano-2-((E)-3-pyridin-3-yl-allanoylamino)-4,5,6,7-tetrahydro-benzo[b]thiophen-6-ylmethyl ester]",501 to 2000
≥ 100000,"CCCNC(=O)OCC1CCc2c(sc(NC(=O)/C=C/c3cccnc3)c2C#N)C1 (stereo not shown) [Example 103, Propyl-carbamic acid 3-cyano-2-((E)-3-pyridin-3-yl-allanoylamino)-4,5,6,7-tetrahydro-benzo[b]thiophen-6-ylmethyl ester]",501 to 2000
≥ 100000,"N#Cc1c(NC(=O)/C=C/c2cccnc2)sc2c1CCC(COC(=O)N1CCC[C@H]1CO)C2 (stereo partly drawn) [Example 104, 2-(S)-(Hydroxymethyl) pyrrolidine-1-carboxylic acid 3-cyano-2-((E)-3-pyridin-3-yl-allanoylamino)-4,5,6,7-tetrahydro-benzo[b]thiophen-6-ylmethyl ester]",≤ 501
≥ 100000,"N#Cc1c(NC(=O)/C=C/c2cccnc2)sc2c1CCC(COC(=O)NCC1CC1)C2 (stereo not shown) [Example 105, Cyclopropylmethyl-carbamic acid 3-cyano-2-((E)-3-pyridin-3-yl-allanoylamino)-4,5,6,7-tetrahydro-benzo[b]thiophen-6-ylmethyl ester]",≤ 501
≥ 100000,"N#Cc1c(NC(=O)/C=C/c2cccnc2)sc2c1CCC(OC(=O)N[C@H]1CC[C@H](O)CC1)C2 (stereo partly drawn) [Example 106, trans-4-Hydroxycyclohexyl-carbamic acid 3-cyano-2-((E)-3-pyridin-3-yl-allanoylamino)-4,5,6,7-tetrahydro-benzo[b]thiophen-6-yl ester]",501 to 2000
≥ 100000,"CCCNC(=O)OC1CCc2c(sc(NC(=O)/C=C/c3cccnc3)c2C#N)C1 (stereo not shown) [Example 107, Propyl-carbamic acid 3-cyano-2-((E)-3-pyridin-3-yl-allanoylamino)-4,5,6,7-tetrahydro-benzo[b]thiophen-6-yl ester]",≤ 501
≥ 100000,"N#Cc1c(NC(=O)/C=C/c2cccnc2)sc2c1CCC(OC(=O)N1CCC[C@H]1CO)C2 (stereo partly drawn) [Example 108, 2-(S)-(Hydroxymethyl) pyrrolidine-1-carboxylic acid 3-cyano-2-((E)-3-pyridin-3-yl-allanoylamino)-4,5,6,7-tetrahydro-benzo[b]thiophen-6-yl ester]",501 to 2000
≥ 100000,"N#Cc1c(NC(=O)/C=C/c2cccnc2)sc2c1CCC(OC(=O)NCC1CC1)C2 (stereo not shown) [Example 109, Cyclopropylmethyl-carbamic acid 3-cyano-2-((E)-3-pyridin-3-yl-allanoylamino)-4,5,6,7-tetrahydro-benzo[b]thiophen-6-yl ester]",≤ 501
≥ 100000,"N#Cc1c(NC(=O)/C=C/c2cccnc2)sc2c1CCC(OC(=O)NC1CCCC1)C2 (stereo not shown) [Example 110, Cyclopentyl-carbamic acid 3-cyano-2-((E)-3-pyridin-3-yl-allanoylamino)-4,5,6,7-tetrahydro-benzo[b]thiophen-6-yl ester]",≤ 501
≥ 100000,"N#Cc1c(NC(=O)/C=C/c2cccnc2)sc2c1CCC(OC(=O)N1CCCCC1)C2 (stereo not shown) [Example 111, Piperidine-1-carboxylic acid 3-cyano-2-((E)-3-pyridin-3-yl-allanoylamino)-4,5,6,7-tetrahydro-benzo[b]thiophen-6-yl ester]",≤ 501
≥ 100000,"C=CCN(C)C(=O)OCC1CCc2c(sc(NC(=O)/C=C/c3cccnc3)c2C#N)C1 (stereo not shown) [Example 112, Allyl-methyl-carbamic acid 3-cyano-2-((E)-3-pyridin-3-yl-allanoylamino)-4,5,6,7-tetrahydro-benzo[b]thiophen-6-ylmethyl ester]",≤ 501
≥ 100000,"N#Cc1c(NC(=O)/C=C/c2cccnc2)sc2c1CCC(OC(=O)N1CCCC(O)C1)C2 (stereo not shown) [Example 113, 3-Hydroxy-piperidine-1-carboxylic acid 3-cyano-2-((E)-3-pyridin-3-yl-allanoylamino)-4,5,6,7-tetrahydro-benzo[b]thiophen-6-yl ester]",≤ 501
≥ 100000,"N#Cc1c(NC(=O)/C=C/c2cccnc2)sc2c1CCC(COC(=O)N1CCC(O)CC1)C2 (stereo not shown) [Example 114, 4-Hydroxy-piperidine-1-carboxylic acid 3-cyano-2-((E)-3-pyridin-3-yl-allanoylamino)-4,5,6,7-tetrahydro-benzo[b]thiophen-6-ylmethyl ester]",≤ 501
≥ 100000,"N#Cc1c(NC(=O)/C=C/c2cccnc2)sc2c1CC[C@H](COC(=O)N1CCC(O)CC1)C2 [Example 114a, 4-Hydroxy-piperidine-1 - carboxylic acid (S)-3-cyano-2-((E)-3-pyridin-3-yl-allanoylamino)-4,5,6,7-tetrahydro-benzo[b]thiophen-6-ylmethyl ester]",≤ 501
≥ 100000,"N#Cc1c(NC(=O)/C=C/c2cccnc2)sc2c1CC[C@@H](COC(=O)N1CCC(O)CC1)C2 [Example 114b, 4-Hydroxy-piperidine-1-carboxylic acid (R)-3-cyano-2-((E)-3-pyridin-3-yl-allanoylamino)-4,5,6,7-tetrahydro-benzo[b]thiophen-6-ylmethyl ester]",≤ 501
≥ 100000,"COC1CN(C(=O)OCC2CCc3c(sc(NC(=O)/C=C/c4cccnc4)c3C#N)C2)C1 (stereo not shown) [Example 115, 3-Methoxy-azetidine-1-carboxylic acid 3-cyano-2-((E)-3-pyridin-3-yl-allanoylamino)-4,5,6,7-tetrahydro-benzo[b]thiophen-6-ylmethyl ester]",501 to 2000
≥ 100000,"N#Cc1c(NC(=O)/C=C/c2cccnc2)sc2c1CCC(COC(=O)N1CCCO1)C2 (stereo not shown) [Example 116, Isoxazolidine-2-carboxylic acid 3-cyano-2-((E)-3-pyridin-3-yl-allanoylamino)-4,5,6,7-tetrahydro-benzo[b]thiophen-6-ylmethyl ester]",≤ 501
≥ 100000,"N#Cc1c(NC(=O)/C=C/c2cccnc2)sc2c1CCC(COC(=O)N1CCCCO1)C2 (stereo not shown) [Example 117, [1,2]Oxazinane-2-carboxylic acid 3-cyano-2-((E)-3-pyridin-3-yl-allanoylamino)-4,5,6,7-tetrahydro-benzo[b]thiophen-6-ylmethyl ester]",≤ 501
